In the supplement of paper PMC10307832:

Assays:
Experiment in all cases: relative viability (nuclei count vs DMSO), 5 days (fraction); higher = more cells survive
R406 + Palbociclib = compound: COc1cc(Nc2ncc(F)c(Nc3ccc4c(n3)NC(=O)C(C)(C)O4)n2)cc(OC)c1OC [R406] + CC(=O)c1c(C)c2cnc(Nc3ccc(N4CCNCC4)cn3)nc2n(C2CCCC2)c1=O [Palbociclib] (partner 0.5 µM)
In short: (§1)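 Nuclei were stained with Hoechst during a one-step fixation (final 0.05% Triton X-100, 1% formaldehyde, 1 ug/ml Hoechst) carried out 5 days after dosing, then counted on 4× images. The cells, lung cancer lines in 1536-well plates, had been dosed by pin tool the day after seeding with one drug alone or a fixed anchor-drug dose plus five library-drug doses (not always all listed) in √10 steps. Relative viability is the nuclei count in treated wells divided by that in vehicle wells, and each value is the median of duplicate plates.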

R406 + Luminespib = compound: COc1cc(Nc2ncc(F)c(Nc3ccc4c(n3)NC(=O)C(C)(C)O4)n2)cc(OC)c1OC [R406] + CCNC(=O)c1noc(-c2cc(C(C)C)c(O)cc2O)c1-c1ccc(CN2CCOCC2)cc1 [Luminespib] (partner 0.01 µM)
In short: as §1

R406 + AZD7762 = compound: COc1cc(Nc2ncc(F)c(Nc3ccc4c(n3)NC(=O)C(C)(C)O4)n2)cc(OC)c1OC [R406] + NC(=O)Nc1cc(-c2cccc(F)c2)sc1C(=O)N[C@H]1CCCNC1 [AZD7762] (partner 0.2 µM)
In short: as §1

Daporinad + Palbociclib = compound: O=C(/C=C/c1cccnc1)NCCCCC1CCN(C(=O)c2ccccc2)CC1 [Daporinad] + CC(=O)c1c(C)c2cnc(Nc3ccc(N4CCNCC4)cn3)nc2n(C2CCCC2)c1=O [Palbociclib] (partner 0.5 µM)
In short: as §1

Cell Line | relative viability (R406 + Palbociclib; first compound 0.08 µM) | relative viability (R406 + Palbociclib; first compound 0.253 µM) | relative viability (R406 + Palbociclib; first compound 0.8 µM) | relative viability (R406 + Palbociclib; first compound 2.53 µM) | relative viability (R406 + Palbociclib; first compound 8 µM) | relative viability (R406 + Luminespib; first compound 0.08 µM) | relative viability (R406 + Luminespib; first compound 0.253 µM) | relative viability (R406 + Luminespib; first compound 0.8 µM) | relative viability (R406 + Luminespib; first compound 2.53 µM) | relative viability (R406 + Luminespib; first compound 8 µM) | relative viability (R406 + AZD7762; first compound 0.08 µM) | relative viability (R406 + AZD7762; first compound 0.253 µM) | relative viability (R406 + AZD7762; first compound 0.8 µM) | relative viability (R406 + AZD7762; first compound 2.53 µM) | relative viability (R406 + AZD7762; first compound 8 µM) | relative viability (Daporinad + Palbociclib; first compound 0.0005 µM) | relative viability (Daporinad + Palbociclib; first compound 0.001581 µM) | relative viability (Daporinad + Palbociclib; first compound 0.005 µM) | relative viability (Daporinad + Palbociclib; first compound 0.01581 µM)
NCI-H1437 | 0.318 | 0.349 | 0.363 | 0.391 | 0.229 | 1.14 | 1.13 | 1.15 | 1.23 | 0.966 | 1.04 | 1.19 | 1.13 | 1.05 | 1.05 | 0.274 | 0.332 | 0.338 | 0.289
COR-L23 | 0.224 | 0.346 | 0.342 | 0.166 | 0.157 | 0.665 | 0.919 | 0.71 | 0.3 | 0.372 |  |  |  |  |  | 0.302 | 0.362 | 0.278 | 0.191
ABC-1 | 0.777 | 0.784 | 0.48 | 0.653 | 0.492 |  | 0.569 | 0.27 | 0.338 | 0.213 | 0.912 | 0.769 | 0.865 | 0.858 | 0.669 | 0.87 | 0.558 | 0.793 | 0.904
SK-MES-1 | 0.313 | 0.297 | 0.307 | 0.259 | 0.192 | 0.863 | 0.858 | 0.957 | 0.232 | 0.137 |  |  |  |  |  | 0.332 | 0.303 | 0.329 | 0.352
PC-14 | 0.58 | 0.666 | 0.735 | 0.346 | 0.146 | 0.153 | 0.171 | 0.139 | 0.123 | 0.126 | 0.296 | 0.435 | 0.418 | 0.403 | 0.281 | 0.564 | 0.522 | 0.601 | 0.339
SW 900 | 0.471 | 0.559 | 0.518 | 0.617 | 0.096 | 0.18 | 0.186 | 0.177 | 0.125 | 0.117 | 0.536 | 0.814 | 0.787 | 0.232 | 0.146 | 0.432 |  | 0.573 | 0.501
A-427 | 0.516 | 0.596 | 0.575 | 0.477 | 0.446 | 0.929 | 1 | 1.04 | 0.398 | 0.593 | 0.832 | 0.795 | 0.86 | 0.663 | 0.43 | 0.475 | 0.533 | 0.487 | 0.473
NCI-H1792 | 0.603 | 0.721 | 0.708 | 0.506 | 0.518 | 0.423 | 0.424 | 0.402 | 0.278 | 0.176 | 0.75 | 0.615 | 0.908 | 0.283 | 0.378 | 0.637 | 0.694 | 0.654 | 0.681
LCLC-97TM1 | 0.34 | 0.218 | 0.273 | 0.185 | 0.217 | 0.771 | 0.883 | 0.72 | 0.571 | 0.291 | 0.207 | 0.313 | 0.327 | 0.164 | 0.219 | 0.194 | 0.191 | 0.24 | 0.235
NCI-H1703 |  |  |  |  |  |  |  |  |  |  | 0.144 | 0.137 | 0.115 | 0.105 | 0.112 |  |  |  | 
SW 1573 | 0.402 | 0.364 | 0.467 | 0.32 | 0.127 | 0.396 | 0.44 | 0.5 | 0.161 | 0.107 |  |  |  |  |  | 0.387 | 0.398 | 0.348 | 0.307
COR-L 105 | 0.374 | 0.386 | 0.39 | 0.316 | 0.33 | 0.757 | 0.972 | 0.658 | 0.551 | 0.768 |  |  |  |  |  | 0.395 | 0.401 | 0.37 | 0.44
SK-LU-1 | 0.392 | 0.423 | 0.367 | 0.258 | 0.191 | 0.192 | 0.203 | 0.191 | 0.151 | 0.101 |  |  |  |  |  | 0.336 | 0.268 | 0.423 | 0.422
HCC-366 | 0.36 | 0.465 | 0.387 | 0.262 | 0.0616 |  |  |  |  |  | 0.269 | 0.294 | 0.368 | 0.267 | 0.243 | 0.451 |  | 0.432 | 0.37
NCI-H1648 | 0.276 | 0.275 | 0.301 | 0.296 | 0.303 |  |  |  |  |  | 0.719 | 0.618 | 0.67 | 0.554 | 0.633 | 0.305 | 0.291 | 0.278 | 0.237
NCI-H2228 | 0.728 | 1.07 | 0.688 | 0.244 | 0.427 | 0.145 | 0.213 | 0.103 | 0.0925 | 0.0961 |  |  |  |  |  | 0.67 | 0.745 | 0.529 | 0.811
NCI-H520 | 0.173 | 0.209 | 0.244 | 0.164 | 0.108 | 0.225 | 0.25 | 0.293 | 0.271 | 0.226 |  |  |  |  |  | 0.209 | 0.286 | 0.158 | 0.183
NCI-H661 | 0.398 | 0.411 | 0.382 | 0.42 | 0.322 | 0.887 | 0.956 | 0.827 | 0.977 | 0.862 |  |  |  |  |  | 0.389 | 0.459 | 0.419 | 0.359
NCI-H1623 |  |  |  |  |  | 0.435 | 0.483 | 0.66 | 0.371 | 0.424 |  |  |  |  |  |  |  |  | 
NCI-H596 |  |  |  |  |  | 0.817 | 1.2 | 1.27 | 0.55 | 0.132 | 1.08 | 1.1 | 0.977 | 0.825 | 0.836 |  |  |  | 
NCI-H2023 | 0.359 | 0.355 | 0.359 | 0.174 | 0.106 | 0.807 | 0.608 | 0.801 | 0.41 | 0.144 |  |  |  |  |  | 0.402 | 0.405 | 0.445 | 0.401
NCI-H2009 | 0.232 | 0.212 | 0.265 | 0.192 | 0.114 | 1.05 | 1.09 | 1.04 | 0.884 | 0.993 |  |  |  |  |  | 0.204 | 0.253 | 0.252 | 0.0753
